Patent US20240132461A1, “FLAVONE DEAZA SPERMIDINE ANALOGUES AND THEIR USE TREATING CANCER” (FLORATEK PHARMA S.A., priority 2021, published 2024)
Structures can show the parent of a compound that is named as a salt.

Tests used:
Format in all cases: cell-based
HCT-116 = assay: Cell viability assay, colon cancer cell line HCT-116
Experimental: (§1) Antitumor activity of the compounds and doxorubicin as a positive control was assessed by using the CellTiter-Blue Cell Viability Assay (Promega, #G8082) or CellTiter-Glow® Luminescent Cell Viability assay (Promega # G7572) according to the manufacturer's instructions. The compounds were tested at 5 or 6 concentrations in half-log increments (highest concentration 30 μM-100 μM) in duplicate or triplicate well conditions.
Tumor cells were grown at 37° C. in a humidified atmosphere with 5% CO2 in RPMI 1640 or DMEM medium, supplemented with 10% (v/v) fetal calf serum and 50 μg/ml gentamicin for up to 20 passages, and were passaged once or twice weekly. Cells were harvested using TrypLE or PBS buffer containing 1 mM EDTA, and the percentage of viable cells is determined using a CASY Model TT cell counter (OMNI Life Science). Cells were harvested from exponential phase cultures, counted and plated in 96 well flat-bottom microtiter plates at a cell density depending on the cell line's growth rate (4,000-20,000 cells/well depending on the cell line's growth rate, up to 60,000 for hematological cancer cell lines) in RPMI 1640 or DMEM medium supplemented with 10% (v/v) fetal calf serum and 50 μg/ml gentamicin (140 μl/well). […] Viability of cells was quantified by the CellTiter-Blue® cell viability assay (Promega G8081) or CellTiter-Glow® Luminescent Cell Viability assay (Promega # G7572). […]

A375 = assay: Cell viability assay, melanoma cell line A375; conditions: Homo sapiens, A-375
Experimental: as §1
(§2) Tumor cells were grown at 37° C. in a humidified atmosphere with 5% CO2 in RPMI 1640 or DMEM medium, supplemented with 10% (v/v) fetal calf serum and 50 μg/ml gentamicin for up to 20 passages, and were passaged once or twice weekly. Cells were harvested using TrypLE or PBS buffer containing 1 mM EDTA, and the percentage of viable cells is determined using a CASY Model TT cell counter (OMNI Life Science). Cells were harvested from exponential phase cultures, counted and plated in 96 well flat-bottom microtiter plates at a cell density depending on the cell line's growth rate (4,000-20,000 cells/well depending on the cell line's growth rate, up to 60,000 for hematological cancer cell lines) in RPMI 1640 or DMEM medium supplemented with 10% (v/v) fetal calf serum and 50 μg/ml gentamicin (140 μl/well). Cultures were incubated at 37° C. and 5% CO2 in a humidified atmosphere. After 24 h, 10 μl of test compounds or control medium are added, and left on the cells for another 72 h. Compounds were serially diluted in DMSO, transferred in cell culture medium, and added to the assay plates. The DMSO concentration was kept constant at <0.3% v/v across the assay plate. Viability of cells was quantified by the CellTiter-Blue® cell viability assay (Promega G8081) or CellTiter-Glow® Luminescent Cell Viability assay (Promega # G7572). Fluorescence (FU) was measured by using the EnSpire® multimode plate reader (Perkin Elmer) (excitation λ=570 nm, emission λ=600 nm) or luminescent detection of ATP in viable cells was used as parameter for proliferation. Luminescence was measured with the microplate luminometer (Promega or Perkin Elmer).
(§3) Sigmoidal concentration-response curves were fitted to the data points (test-versus-control, T/C values) obtained for each tumor model using 4 parameter non-linear curve fit (Charles River DRS Datawarehouse Software) or with GraphPad prism 5.02 software. IC50 values are reported as absolute IC50 values, being the concentration of test compound at the intersection of the concentration-response curves with T/C=50%

melanoma cell lines = assay: Cell viability assay, melanoma cell lines (summary); conditions: summary of Tables 14A and 14B; read-out: IC50s, melanoma cell lines growth
Experimental: as §1, §2, §3

NCI-H1437 = assay: Cell viability assay, non-small lung carcinoma cell line NCI-H1437; conditions: Homo sapiens
Experimental: as §1, §2, §3

LN-229 = assay: Cell viability assay, brain carcinoma cell line LN-229; conditions: Homo sapiens; LN-229 brain carcinoma cell line, 72 h, absolute IC50
Experimental: as §1, §2, §3

MeWo = assay: Cell viability assay, melanoma cell line MeWo; conditions: Homo sapiens
Experimental: as §1
as §2, with “Elmer). […]” for “Elmer).”

MDA-MB-468 = assay: Cell viability assay, breast carcinoma cell line MDA-MB-468; conditions: Homo sapiens; MDA-MB-468 breast carcinoma cell line
Experimental: as §1
as §2, with “Elmer). […]” for “Elmer).”

DMS114 = assay: Cell viability assay, small cell lung carcinoma cell line DMS114; conditions: Homo sapiens, DMS-114
Experimental: as §1
as §2, with “Elmer). […]” for “Elmer).”

HL-60 = assay: Cell viability assay, acute promyelocytic leukemia cell line HL-60; conditions: Homo sapiens; HL-60 acute promyelocytic leukemia cell line
Experimental: as §1, §2, §3

lung carcinoma cell = assay: Cell viability assay, lung carcinoma cell lines (summary); conditions: summary of Tables 7A-E; read-out: IC50s, lung carcinoma cell growth
Experimental: as §1, §2, §3

U-251 = assay: Cell viability assay, brain carcinoma cell line U-251; conditions: Homo sapiens; U-251 brain carcinoma cell line, 72 h, absolute IC50
Experimental: as §1, §2, §3

brain cancer cell = assay: Cell viability assay, brain cancer cell lines (summary); conditions: summary of Tables 3A-D; read-out: IC50s, brain cancer cell growth
Experimental: as §1, §2, §3

SH-SY-5Y = assay: Cell viability assay, brain carcinoma cell line SH-SY-5Y; conditions: Homo sapiens, SH-SY5Y; SH-SY-5Y brain carcinoma cell line, 72 h, absolute IC50
Experimental: as §1
as §2, with “Elmer). […]” for “Elmer).”

NCI-H441 = assay: Cell viability assay, mucoepidermoid pulmonary and adenocarcinoma, NCI-H441; conditions: Homo sapiens
Experimental: as §1
as §2, with “Elmer). […]” for “Elmer).”

U-87MG = assay: Cell viability assay, brain carcinoma cell line U-87MG; conditions: Homo sapiens; U-87MG brain carcinoma cell line, 72 h, absolute IC50
Experimental: as §1, §2, §3

NCI-H292 = assay: Cell viability assay, mucoepidermoid pulmonary and adenocarcinoma, NCI-H292; conditions: Homo sapiens
Experimental: as §1
as §2, with “Elmer). […]” for “Elmer).”

CALU-6 = assay: Cell viability assay, non-small cell lung carcinoma cell line CALU-6; conditions: Homo sapiens; CALU-6 non-small cell lung carcinoma cell line
Experimental: as §1, §2, §3

breast cancer cell = assay: Cell viability assay, breast cancer cell lines (summary); conditions: summary of Tables 4A and 4B; read-out: IC50s, breast cancer cell growth
Experimental: as §1, §2, §3

SMILES | IC50 (HCT-116; HCT-116 colon cancer cell line) | IC50 (HCT-116; Homo sapiens, HCT-116, HCT-116 colon cancer cell line) | IC50 (A375) | IC50 (melanoma cell lines) | IC50 (NCI-H1437) | IC50 (LN-229) | IC50 (MeWo) | IC50 (MDA-MB-468) | IC50 (DMS114) | IC50 (HL-60) | IC50 (lung carcinoma cell) | IC50 (U-251) | IC50 (brain cancer cell) | IC50 (SH-SY-5Y) | IC50 (NCI-H441) | IC50 (U-87MG) | IC50 (NCI-H292) | IC50 (CALU-6) | IC50 (breast cancer cell)
O=c1cc(-c2ccc(CCCN3CCCCC3)cc2)oc2c(O)c(O)ccc12 [SND172] | 11.4 µM | < 20 µM |  |  |  |  |  |  |  |  |  |  |  |  |  |  |  |  | 
CN(CCCc1ccc(-c2cc(=O)c3ccc(O)c(O)c3o2)cc1)CCN1CCN(C)CC1 [SND173, 7,8-Dihydroxy-2-(4-(3-(methyl(2-(4-methylpiperazin-1-yl)ethyl)amino)propyl)phenyl)-4H-chromen-4-one trihydrochloride] |  |  | 10 µM | < 10 µM |  |  |  |  |  |  |  |  |  |  |  |  |  |  | 
O=c1cc(-c2ccc(CCCCN3CCCCC3)cc2)oc2c3c(ccc12)OCO3 [SND390] |  |  |  |  | 10 µM | 7 µM |  |  |  |  |  |  |  |  |  |  |  |  | 
CN(CCCCc1ccc(-c2cc(=O)c3ccc4c(c3o2)OCO4)cc1)CCCN1CCCCC1 [SND391] |  |  | 1.3 µM | < 10 µM | 1.4 µM | 2.8 µM | 1.9 µM | 1.2 µM | 1.1 µM | 2.4 µM | < 20 µM | 3.9 µM | < 10 µM | 3 µM | 1.2 µM | 5.1 µM | 0.98 µM | 4 µM | < 10 µM
NCCCNCCCCNCCCCc1ccc(-c2cc(=O)c3ccc4c(c3o2)OCO4)cc1 [SND392] |  |  |  | < 10 µM | 3.1 µM | 11 µM | 9.8 µM |  | 5.4 µM | 5.9 µM | < 20 µM | 8.4 µM |  | 3.7 µM | 5.4 µM | 7.6 µM | 3.8 µM | 7 µM | 
CN(CCCCc1ccc(-c2cc(=O)c3ccc4c(c3o2)OCO4)cc1)C12CC3CC(CC(C3)C1)C2 [SND393] |  |  | 2.7 µM | < 10 µM |  |  |  | 3.2 µM |  |  | < 20 µM | 6.8 µM | < 10 µM | 4.7 µM |  | 7.1 µM |  | 7 µM | < 10 µM
CCN(CCCCc1ccc(-c2cc(=O)c3ccc4c(c3o2)OCO4)cc1)Cc1ccccc1OC [SND394] |  |  |  |  | 2.1 µM | 2.9 µM |  | 3.8 µM | 3.1 µM | 2.8 µM | < 20 µM | 7.6 µM | < 10 µM |  | 3.2 µM | 7.6 µM | 1.9 µM | 8.9 µM | < 10 µM
